Like-named read-outs stand apart in the source and are kept apart here.
What was measured:
[1] = target: recombinant SARS-CoV-2 Main protease (Mpro) (Severe acute respiratory syndrome coronavirus 2 (2019-nCoV) (SARS-CoV-2), UniProt P0DTD1); test: Cov Mpro Biochemical IC50 Assay; conditions: read-out: MPro IC50
[2] = system: SARS-CoV-2-NLuc; test: microbe, parasite or virus in culture; assay type: cell-based, SARS Coronavirus 2
[3] = recombinant SARS-CoV-2 Mpro, fluorogenic peptide substrate
[4] = Severe acute respiratory syndrome coronavirus, 48 h, read-out: MPro EC50
[5] = recombinant SARS-CoV-2 Mpro 7.5 nM, fluorogenic peptide substrate 40 μM
[6] = Severe acute respiratory syndrome coronavirus, 48 h; read-out: MPro EC50

SMILES	IC50 [1, 3] [µM]	EC50 [2, 4] [µM]	IC50 [1, 5] [µM]	EC50 ([2]; read-out: MPro EC50) [µM]	EC50 [2, 6] [µM]
O=c1[nH]c2cc(-c3c(Cl)cccc3-c3cn(C4CC4)nn3)ccc2c(=O)n1-c1cncc2ccccc12 [Example 160, 7-(2-chloro-6-(1-cyclopropyl-1H-1,2,3-triazol-4-yl)phenyl)-3-(isoquinolin-4-yl)quinazoline-2,4(1H,3H)-dione]	0.0172	0.0568	–	–	–
COc1cc(-c2cc3[nH]c(=O)n(-c4cncc5scc(C)c45)c(=O)c3s2)c(Cl)cc1F (single isomer, unassigned) [Example 1056, 6-(2-chloro-4-fluoro-5-methoxyphenyl)-3-(3-methylthieno[2,3-c]pyridin-4-yl)thieno[3,2-d]pyrimidine-2,4(1H,3H)-dione]	–	–	0.00234	< 0.00101	–
COc1cc(-c2cc3c(s2)c(=O)n(-c2cncc4cnn(C)c24)c(=O)n3CC#N)c(C#N)cc1F [Example 693]	–	0.0943	0.00256	–	–
COc1cc(-c2cc3c(s2)c(=O)n(-c2cncc4ccncc24)c(=O)n3CCC#N)c(Cl)cc1F (single isomer, unassigned) [Example 1098, 3-[6-(2-chloro-4-fluoro-5-methoxy-phenyl)-3-(2,6-naphthyridin-4-yl)-2,4-dioxo-thieno[3,2-d]pyrimidin-1-yl]propanenitrile]	–	–	0.00381	0.00191	–
CC(C)(C)c1cncc(-n2c(=O)[nH]c3cc(-c4ccccc4Cl)ccc3c2=O)c1 [Example 579]	–	–	> 50	–	42.6
COc1cc(-c2cc3[nH]c(=O)n(-c4cncc5[nH]nc(C(F)(F)F)c45)c(=O)c3s2)c(Cl)cc1F [Example 1045, 6-(2-chloro-4-fluoro-5-methoxyphenyl)-3-(3-(trifluoromethyl)-1H-pyrazolo[3,4-c]pyridin-4-yl)thieno[3,2-d]pyrimidine-2,4(1H,3H)-dione]	–	> 1	0.141	–	–
COc1ccc(C)c(-c2cc3[nH]c(=O)n(-c4cncc5ccccc45)c(=O)c3s2)c1 [Example 349]	0.00723	0.03	–	–	–
COc1cc(-c2cc3c(s2)c(=O)n(-c2cncc4ccccc24)c(=O)n3CCC#N)c(Cl)cc1F (single isomer, unassigned) [Example 637, 3-[6-(2-chloro-4-fluoro-5-methoxy-phenyl)-3-(4-isoquinolyl)-2,4-dioxo-thieno[3,2-d]pyrimidin-1-yl]propanenitrile]	–	–	0.00348	0.00185	–
COc1cccc(-c2ccc3c(=O)n(-c4cncc5ccccc45)c(=O)[nH]c3c2)c1Cl [Example 295]	7.43	13.5	–	–	–
COc1ccc(Cl)c(-c2cc3[nH]c(=O)n(-c4cncc5c(OC)cccc45)c(=O)c3s2)c1 [Example 627]	–	4.77	1.97	–	–
CCCOc1ccc(Cl)c(-c2ccc3c(=O)n(-c4cncc5ccccc45)c(=O)[nH]c3c2)c1 [Example 249]	0.269	0.11	–	–	–
Cc1cnc(Cl)c(-c2cc3c(s2)c(=O)n(-c2cncc4cnn(C)c24)c(=O)n3CCC#N)c1 [Example 1020]	–	0.398	0.107	–	–
Cc1c(C2CCOCC2)cncc1-n1c(=O)[nH]c2cc(-c3ccccc3Cl)sc2c1=O [Example 119, 6-(2-chlorophenyl)-3-(4-methyl-5-(tetrahydro-2H-pyran-4-yl)pyridin-3-yl)thieno[3,2-d]pyrimidine-2,4(1H,3H)-dione]	0.386	2.76	–	–	–
N#Cc1cncc(-c2cccc(Cl)c2-c2cc3[nH]c(=O)n(-c4cncc5ccccc45)c(=O)c3s2)c1 [Example 673]	–	0.00371	0.00408	–	–
CS(=O)(=O)c1ccc(-c2cccc(Cl)c2-c2ccc3c(=O)n(-c4cncc5ccccc45)c(=O)[nH]c3c2)cn1 [Example 204]	0.0117	0.049	–	–	–
Cn1ncc(-c2cccc(Cl)c2-c2ccc3c(=O)n(-c4cncc5ccccc45)c(=O)[nH]c3c2)c1C(F)F [Example 311]	0.0453	0.025	–	–	–
COc1cnc(C#N)c(-c2cc3[nH]c(=O)n(-c4cncc5cccc(F)c45)c(=O)c3s2)c1 [Example 761]	–	–	0.0456	–	0.398
COc1cc(-c2cc3c(s2)c(=O)n(-c2cncc4cnn(C)c24)c(=O)n3CCC#N)c(Cl)cc1F (single isomer, unassigned) [Example 645, 3-[6-(2-chloro-4-fluoro-5-methoxy-phenyl)-3-(1-methylpyrazolo[4,3-c]pyridin-7-yl)-2,4-dioxo-thieno[3,2-d]pyrimidin-1-yl]propanenitrile]	–	–	0.0435	0.036	–
CNC(=O)c1cccc(-c2cccc(Cl)c2-c2ccc3c(=O)n(-c4cncc5ccccc45)c(=O)[nH]c3c2)c1 [Example 189]	0.00858	0.0182	–	–	–
COc1cc(-c2cc3c(s2)c(=O)n(-c2cncc4c(C)nn(C)c24)c(=O)n3CCC#N)c(Cl)cc1F [Example 979, 3-(6-(2-chloro-4-fluoro-5-methoxyphenyl)-3-(1,3-dimethyl-1H-pyrazolo[4,3-c]pyridin-7-yl)-2,4-dioxo-3,4-dihydrothieno[3,2-d]pyrimidin-1(2H)-yl)propanenitrile]	–	0.00307	0.00371	–	–
N#Cc1ncccc1-c1ccc2c(=O)n(-c3cncc4ccccc34)c(=O)[nH]c2c1 [Example 62]	0.904	3.15	–	–	–
Cc1cccc(C)c1-c1ccc2c(=O)n(-c3cncc4ccccc34)c(=O)[nH]c2c1 [Example 27]	0.77	0.751	–	–	–

SMILES	IC50 [1, 3] [µM]	EC50 [2, 4] [µM]	IC50 [1, 5] [µM]	EC50 ([2]; read-out: MPro EC50) [µM]	EC50 [2, 6] [µM]
Cc1ccc(C#N)cc1-c1cc2[nH]c(=O)n(-c3cncc4ccccc34)c(=O)c2s1 [Example 546]	–	0.164	0.0154	–	–
COc1cc(-c2cc3c(s2)c(=O)n(-c2cncc4cnn(C)c24)c(=O)n3CC(C)(C)C#N)c(Cl)cc1F [Example 697]	–	0.00962	0.00901	–	–
COc1cc(-c2cc3c(s2)c(=O)n(-c2cncc(Cl)c2C)c(=O)n3CCC#N)c(C#N)cc1F [Example 806]	–	–	0.00515	–	0.00699
COc1ccc(C#N)c(-c2ccc3c(=O)n(-c4cncc5ccccc45)c(=O)[nH]c3c2)c1 (single isomer, unassigned) [Example 570, 2-[3-(4-isoquinolyl)-2,4-dioxo-1H-quinazolin-7-yl]-4-methoxy-benzonitrile]	–	–	1.31	0.7	–
COc1ncc(-c2cccc(Cl)c2-c2ccc3c(=O)n(-c4cncc5ccccc45)c(=O)[nH]c3c2)cc1C#N [Example 186]	0.112	0.0507	–	–	–
COc1cccc(Cl)c1-c1cnc2c(=O)n(-c3cncc4ccccc34)c(=O)[nH]c2c1 [Example 48]	0.0957	–	–	–	0.277
Cc1nc2cc(-c3cccc(Cl)c3-c3ccc4c(=O)n(-c5cncc6ccccc56)c(=O)[nH]c4c3)ccc2o1 [Example 359]	0.107	0.0914	–	–	–
O=c1[nH]c2cc(-c3ccccc3-c3ccccc3Cl)ccc2c(=O)n1-c1cncc2ccccc12 [Example 74, 7-(2′-chloro-[1,1′-biphenyl]-2-yl)-3-(isoquinolin-4-yl)quinazoline-2,4(1H,3H)-dione]	0.47	0.711	–	–	–
O=c1[nH]c2cc(-c3c(O)cccc3Cl)sc2c(=O)n1-c1cncc2ccccc12 [Example 8]	0.0313	0.108	–	–	–
COc1cc(-c2cc3c(s2)c(=O)n(-c2cncc4ccn(C)c(=O)c24)c(=O)n3CC#N)c(Cl)cc1F [Example 696]	–	0.0292	0.00315	–	–
Cc1c(C#N)cncc1-c1cccc(Cl)c1-c1ccc2c(=O)n(-c3cncc4ccccc34)c(=O)[nH]c2c1 [Example 205]	0.044	0.0412	–	–	–
N#CCCn1c(=O)n(-c2cncc(CO)c2)c(=O)c2sc(-c3ccccc3C#N)cc21 [Example 1101]	–	> 1	0.0363	–	–
Cc1cncc(-n2c(=O)[nH]c3cc(-c4ccccc4Cl)sc3c2=O)c1OCC(F)(F)F [Example 372]	0.0778	0.176	–	–	–
COCc1ccccc1-c1ccc2c(=O)n(-c3cncc4ccccc34)c(=O)[nH]c2c1 [Example 54]	0.741	1.63	–	–	–
Cc1cc(Cl)ncc1-c1cc2[nH]c(=O)n(-c3cncc4ccccc34)c(=O)c2s1 [Example 287]	0.226	> 0.922	–	–	–
Cc1c2c(-n3c(=O)c4sc(-c5ccc(F)cc5Cl)cc4n(CCC#N)c3=O)cncc2nn1C [Example 797, 3-(6-(2-chloro-4-fluorophenyl)-3-(2,3-dimethyl-2H-pyrazolo[3,4-c]pyridin-4-yl)-2,4-dioxo-3,4-dihydrothieno[3,2-d]pyrimidin-1(2H)-yl)propanenitrile]	–	0.108	0.0346	–	–
COc1cc(-c2cc3c(s2)c(=O)n(-c2cncc4nnn(C5CC5)c24)c(=O)n3CCC#N)c(Cl)cc1F [Example 939]	–	0.0303	0.011	–	–
CC(C)c1ccccc1-c1ccc2c(=O)n(-c3cncc4ccccc34)c(=O)[nH]c2c1 [Example 52]	12.8	3.72	–	–	–
COc1cc(-c2cc3[nH]c(=O)n(-c4cncc5ccccc45)c(=O)c3s2)c(Cl)cc1F (single isomer, unassigned) [Example 556, 6-(2-chloro-4-fluoro-5-methoxyphenyl)-3-(isoquinolin-4-yl)thieno[3,2-d]pyrimidine-2,4(1H,3H)-dione]	–	–	0.00341	0.00204	–
COc1cc(-c2cc3c(s2)c(=O)n(-c2cncc4ccccc24)c(=O)n3CCC#N)c(C#N)cc1F (single isomer, unassigned) [Example 967, 2-(1-(2-cyanoethyl)-3-(isoquinolin-4-yl)-2,4-dioxo-1,2,3,4-tetrahydrothieno[3,2-d]pyrimidin-6-yl)-5-fluoro-4-methoxybenzonitrile]	–	–	0.00182	0.00183	–
COc1cc(-c2cc3c(s2)c(=O)n(-c2cncc4nc(C)n(C)c24)c(=O)n3CCC#N)c(C#N)cc1F [Example 855]	–	0.498	0.019	–	–
Cn1ncc2cncc(-n3c(=O)[nH]c4cc(-c5c(Cl)cccc5-c5cncc(C#N)c5)sc4c3=O)c21 [Example 677]	–	–	0.00727	–	0.045
